From patent US20090010923A1, “TREATMENT OF CANCER WITH ANTI-MUSCARINIC RECEPTOR AGENTS” (University of Maryland, Baltimore, priority 2007, published 2009)
“Also recorded” adds a separate entry of the source.

What was measured:
[1] = cited from earlier work
SNU-C4 cells = assay: Cell proliferation, sulforhodamine B (SRB) colorimetric assay, SNU-C4 cells; assay type: cell-based, human; conditions: 5 days, 37° C., alone; cells express EGFR but not M3R
Method: (§1) FIG. 1 depicts bile acid-induced colon cancer cell proliferation which requires M3R expression and activation in H508 and SNU-C4 cells. […] Cell proliferation was determined using the sulforhodamine B (SRB) colorimetric assay. Mean±SEM of 3 exp.
(§2) Cells that are known to express both EGFR and M3R were treated with several M3R antagonists and bile acid conjugates to determine if M3R ligand binding affected EGFR activation. […] Cell proliferation was determined using the sulforhodamine B (SRB) colorimetric assay. […] Mean±SEM of 3 exp.

H508 cells [2] = assay: Cell proliferation, sulforhodamine B (SRB) colorimetric assay, H508 cells; assay type: cell-based, human; conditions: 5 days, 37° C.; for proliferation of H508 cells: alone, cells co-express M3R and EGFR
Method: as §1, §2
MAPK activation was detected with 10 μM and maximal with 300 μM DCT. […] DCT-induced MAPK activation is rapid and reversible. MAPK activation is detected within 1 min, maximal by 10-20 min and returns to basal by 70 min. Collectively these findings emphasize the importance of co-expression of M3R and EGFR for both ACh- and bile acid-induced colon cancer cell proliferation, and define relevant DCT concentrations.

WT and M3R−/− mice = assay: AOM murine colon cancer model (WT and M3R-/- mice); assay type: in vivo, mouse; conditions: for colon tumor number: 20 weeks
Method: WT and M3R^−/− male mice (129S6/SvEvTac×CFl; 50%/50%) were treated for 6 wks in which 48 animals received weekly intraperitoneal (ip) PBS (control) or AOM (10 mg/kg). The AOM mouse model is a well-established, commonly used model that mimics human colon carcinogenesis. AOM, an intermediate in the metabolism of 1,2-dimethylhydrazine to the alkylating ion methyldiazonium, is a well-known colorectal-specific pro carcinogen. AOM-induced rodent tumors mimic human colon cancer in that most tumors arise in the colon, form grossly visible exophytic polypoid or plaque-like growths, and have a microscopic appearance similar to that of human lesions. Molecular changes in AOM-induced tumors, including β-catenin and p53 mutations, which also mimic those in human colon cancer. […] Short-term study end-points are identified (e.g. aberrant crypt foci (ACF), β-catenin-accumulating crypts (BCAC) and BrdUrd staining) and potential toxicity was evaluated, a smaller group of mice is euthanized early, upon completion of AOM treatment. During the study, WT and M3R^−/− mice were given weekly (for 6 weeks) intraperitoneal (ip) PBS (control; n=10 WT-PBS mice) or AOM (10 mg/kg; n=22 WT-AOM and 16 WT and M3R^−/−-AOM mice). […] Animals were housed under identical conditions and fed standard mouse chow. Mice were weighed weekly, observed for evidence of tumor formation (e.g., anal bleeding) and euthanized at 20 weeks. Colon length was measured, segments opened longitudinally, and tumors identified and photographed using a Nikon SMZ1500 dissecting microscope. Tumor number and diameter were measured using Image-Pro software and tumor volume was calculated: vol=½ width×length^2. Two hours before euthanasia, mice received intraperitoneal injection of BrdU (Sigma-Aldrich) (50 mg/kg) to label S-phase cells, a marker of proliferation. BrdU labeling was determined after immunostaining with anti-BrdU antibody (BD Bioscience) by counting BrdU-positive nuclei in 1000 cells (data expressed as percent of total cells that were BrdU-positive). As a marker of apoptosis, we used immunostaining with anti-activated caspase-3 antibody (Cell Signaling Technology). Only complete crypts were evaluated and investigators were masked to treatment group. For analysis of both BrdU and activated caspase-3 staining, only tissue from the distal half of the colon was examined.

M1R and M3R = tested on: M1R and M3R
Excerpt: Muscarinic receptor subtypes were expressed in murine gastric chief cells using M1R^−/−, M3R^−/− and M1/3R^−/− mice. […] The mice were generated using gene targeting.

H508 cells [3] = assay: p44/42 MAPK phosphorylation/activation in H508 colon cancer cells; assay type: cell-based, human
Excerpt: (§3) In H508 colon cancer cells, acetylcholine (ACh) activates p44/42 MAPK and p90RSK, which is a nuclear response protein that regulates gene expression and the cell cycle.

colon cancer cells [4] = assay: Caspase-3 activation (apoptosis) in colon cancer cells; assay type: cell-based
Excerpt: (§4) apoptosis, or both. Deoxycholic acid induces apoptosis.

colon cancer cells [5] = assay: Post-EGFR PI3K/Akt and GSK-3 signaling in colon cancer cells; assay type: cell-based
Excerpt: The rationale for including both murine colon cancer models in this study is to observe important differences between these cancer models. Although the Apc^Min/+ genotype mimics more closely the human condition (e.g. FAP), the AOM-treated mouse phenotype is more similar to human colon cancer. […] Additionally, Apc^Min/+ mice provide an opportunity to study the relationship between M3R and activation and expression of genes in the Wnt/β-catenin signaling pathway. Binding of Wnt to its cell surface receptor (Frizzled) leads to activation of β-catenin (nuclear translocation and binding to Tcf/LEF, resulting in transcription of important target genes, including cyclin D1). Apc, is a scaffold protein that promotes GSK-3α/β-mediated phosphorylation of β-catenin; phosphorylated β-catenin is targeted for proteosomal degradation, thereby preventing nuclear translocation and pro-proliferative gene transcription. Mutated Apc in Apc^Min/+ mice results in reduced β-catenin phosphorylation, thereby promoting nuclear translocation and pro-proliferative actions. […] These findings provide strong evidence that bile acid-activated M3R signaling can promote pro-proliferative actions of β-catenin. The Apc^Min/+ mouse provides an excellent model to elucidate the role of M3R activation and expression in Wnt/β-catenin signaling.
as §4

[6] = tested on: CHO cells expressing rat M3R (CHO-rM3R); assay: p44/42 MAPK phosphorylation in CHO cells expressing rat M3R; assay type: cell-based
Excerpt: as §3

[7] = tested on: muscarinic receptors on gastric chief cells; assay: Pepsinogen secretion from gastric chief cells; assay type: cell-based
[8] = tested on: muscarinic receptors on gastric chief cells; assay: IP formation, gastric chief cells; assay type: cell-based
[9] = tested on: muscarinic receptors on gastric chief cells; assay: Competition for binding with a muscarinic radioligand, gastric chief cells

## CCCC[N+]1(C)[C@@H]2C[C@@H](OC(=O)[C@H](CO)c3ccccc3)C[C@H]1[C@@H]1O[C@@H]12 (stereo partly drawn) [scopolamine butylbromide]
[1]; in vivo
  activity of metabolites: inactive
  half-life of the terminal elimination phase: about 5 hr
  protein binding: low
[1]; quaternary ammonium derivative
  blood-brain barrier crossing: does not cross the blood-brain barrier

## C[C@H](CCC(=O)NCC(=O)O)[C@H]1CC[C@H]2[C@@H]3CC[C@@H]4C[C@H](O)CC[C@]4(C)[C@H]3C[C@H](O)[C@]12C [DCG]
SNU-C4 cells
  proliferation of SNU-C4 cells: do not significantly alter proliferation
H508 cells [2]
  proliferation of H508 cells: stimulate proliferation

## CN=[N+](C)[O-] [AOM, azoxymethane]
WT and M3R−/− mice; AOM-treated M3R-/- mice
  BrdU-positive cells in colon epithelium: 7.2±0.9%
  adenocarcinomas/mouse: 0.6±0.1
  mice with adenomas: 6%
  tumor volume: 8.1±1.5 mm^3
  colon tumor number: 3.2±0.3 tumors/colon
WT and M3R−/− mice; AOM-treated WT mice
  BrdU-positive cells in colon epithelium: 16.6±4.0%
  adenocarcinomas/mouse: 1.7±0.4
  mice with adenomas: 36%
  tumor volume: 20.3±4.1 mm^3
  colon tumor number: 5.3±0.5 tumors/colon
WT and M3R−/− mice; AOM-treated WT mice vs PBS-treated WT, 10 mg/kg ip weekly x 6 wks, 20 wks
  increase in BrdU-positive epithelial cells: 5 fold
WT and M3R−/− mice; PBS-treated WT, AOM-treated WT and M3R-/- mice
  number of apoptotic cells (activated caspase-3): no significant difference
WT and M3R−/− mice; WT mice treated with AOM
  increase in tumors/animal: 5 fold

## cholecystokinin [cholecystokinin (CCK)]
M1R and M3R
  agonist-induced pepsinogen secretion: not altered

## C[C@H](CCC(=O)NCCS(=O)(=O)O)[C@H]1CC[C@H]2[C@@H]3CC[C@@H]4C[C@H](O)CC[C@]4(C)[C@H]3C[C@H](O)[C@]12C [DCT, Deoxycholyltaurine]
H508 cells [3]
  DCT concentration at which MAPK activation was detected: 10 µM
  DCT concentration at which MAPK activation was maximal: 300 µM
  time at which MAPK activation is detected: ≤ 1 min
  time at which MAPK activation returns to basal: ≤ 70 min
  time of maximal MAPK activation: 10 to 20 min
SNU-C4 cells
  proliferation of SNU-C4 cells: do not significantly alter proliferation
Colon cancer cells [4]
  DCT-induced apoptosis (caspase-3 activation): no evidence of DCT-induced apoptosis
Colon cancer cells [5]; colon cancer cells
  phosphorylation of GSK-3α/β: stimulates an inactivating phosphorylation
Colon cancer cells [5]; preliminary studies
  post-EGFR PI3K/Akt signaling: activates
H508 cells [2]
  proliferation of H508 cells: stimulate proliferation; also recorded: stimulated after 5 days

## CC(=O)OCC[N+](C)(C)C [ACh, acetylcholine]
H508 cells [3]; H508 cells
  ACh-induced p44/42 MAPK phosphorylation: 14 fold
[6]
  ACh-induced p44/42 MAPK phosphorylation: 27 fold

## CN1[C@@H]2CC[C@H]1C[C@@H](OC(=O)C(CO)c1ccccc1)C2 (stereo partly drawn) [atropine]
[7]
  inhibition of the actions of LCT: inhibited the actions of LCT
H508 cells [2]; with DCT
  inhibition of actions of DCT on H508 proliferation: inhibited

## NCCS(=O)(=O)O [taurine]
[7]
  pepsinogen secretion: did not alter
[8]
  IP formation: did not alter
[9]
  competition for binding with a muscarinic radioligand: did not alter

## cholyltaurine
[7]
  pepsinogen secretion: did not alter
[8]
  IP formation: did not alter
[9]
  competition for binding with a muscarinic radioligand: did not alter

## C[C@H](CCC(=O)NCCS(=O)(=O)O)[C@H]1CC[C@H]2[C@@H]3CC[C@@H]4C[C@H](O)CC[C@]4(C)[C@H]3CC[C@]12C [LCT, lithocholyltaurine]
[7]
  pepsinogen secretion: stimulating pepsinogen secretion
SNU-C4 cells
  proliferation of SNU-C4 cells: do not significantly alter proliferation
[8]
  IP formation: increased IP formation
[9]
  competition for binding with a muscarinic radioligand: competed for binding
H508 cells [2]
  proliferation of H508 cells: stimulate proliferation
